Where no end group is shown, it is not given here. 5‑FAM = 5-carboxyfluorescein-aminohexyl amidite fluorescent tag
Assays:
[1] = ELISA determination of specificity, binding to hair; parameters: species or system human; settings: for Hair A450 ± SEM: ELISA, 20 μM fluorescein-labeled peptide in binding buffer, 30 min at 37° C., absorbance at 450 nm; for binding to hair (in words): ELISA of Table 2
From the text: (§1) The hair-binding peptides HCP.1 (SEQ ID NO:1) and HCP.6 (SEQ ID NO:4) were used in this Example along with a control peptide, an unrelated skin-binding peptide, Skin 1 (Huang et al., U.S. Patent Application Publication No. 2005/0050656), given as SEQ ID NO:8. All of the peptides were synthesized with an added lysine residue, derivatized with the fluorescent tag 5-carboxyfluorescein-aminohexyl amidite (5-FAM), at the C-terminus by SynPep (Dublin, Calif.). The sequences of the derivatized hair binding peptides HCP.1(5-FAM) and HCP.6(5-FAM) are given as SEQ ID NOs:9 and 10, respectively. The sequence of the derivatized skin-binding peptide control Skin 1(5-FAM) is given as SEQ ID NO:11.
(§2) For the assay, a unique hair or pig skin-bottom 96-well apparatus was created by applying one layer of Parafilm® under the top 96-well block of a Minifold I Dot-Blot System (Schleicher & Schuell, Inc., Keene, N.H.), adding hair or a layer of hairless pig skin on top of the Parafilm® cover, and then tightening the apparatus. The hair or skin sample in the 96-well apparatus was first blocked with SuperBlock® Blocking Buffer (Tris-buffered; Pierce Biotechnology, Rockford, Ill.) by incubating the sample for 1 h at room temperature. Then, the hair or skin sample was washed six times with wash buffer (TBST-0.5%). The fluorescein-labeled peptide, at a concentration of 20 μM in 1.0 mL of binding buffer (TBST-0.5% containing 1 mg/mL BSA), was added to each well and incubated for 30 min at 37° C. The hair or skin sample was washed six times with TBST-0.5%, and then, 1.0 mL of anti-fluorescein/Mouse IgG (Molecular Probes, Inc., Eugene, Oreg.) solution (1:1000 dilution in blocking buffer) was added per well. The samples were incubated for 1 h at room temperature and then washed six times with wash buffer. Then, 1.0 mL of Anti-Mouse IgG-HRP conjugate (Pierce Biotechnology) solution (1:1000 dilution in blocking buffer) was added to each well and the samples were incubated for 1 h at room temperature. The samples were washed six times with wash buffer, and 300 μL of TMB Substrate (Pierce Biotechnology) was added to each well. The samples were incubated for 10 min at room temperature and then a 100 μL sample from each well was taken and added to a well in a new microtiter plate. Then, 100 μL of Stop solution (2 M sulfuric acid solution) was added to each well and the absorbance of each sample was measured at a wavelength of 450 nm.

[2] = ELISA determination of specificity, binding to pig skin; settings: for Skin A450 ± SEM: ELISA, 20 μM fluorescein-labeled peptide in binding buffer, 30 min at 37° C., pig skin, absorbance at 450 nm; for binding to skin (in words): ELISA of Table 2, pig skin
From the text: as §1, §2

[3] = ELISA binding to hair bundles from a hair conditioner matrix or buffer; parameters: species or system human; settings: for Buffer A450 ± SEM / 100% Conditioner A450 ± SEM: hair bundles, 30 min at 37° C.; for Buffer A450 ± SEM: 20 μM peptide in buffer; for 100% Conditioner A450 ± SEM: 20 μM peptide in undiluted Dove Extra Volume Conditioner; for difference in hair-binding activity from a hair conditioner matrix compared to buffer: ELISA of Table 3
Experimental: The same ELISA method described in Example 4 was used, except that the hair samples were assembled into bundles, instead of being cast as wells in a 96-well apparatus. To prepare the hair sample bundles, 100 pieces of 1 cm-long hairs were assembled together and taped at one end with narrow tape (3 M, St. Paul, Minn.). The hair was prepared as described in Examples 1-3 and placed into a flat-bottom block (Qiagen Science, Germantown, Md.; Cat. No. 19579).
The HCP.1(5-FAM) and HCP.6(5-FAM) hair-binding peptides, as described in Example 4, were mixed separately with undiluted hair conditioner (Dove® Extra Volume Conditioner; Unilever) using a high-shear mixer (Silverson, Model L4R7A; Silverson Machines, East Longmeadow, Mass.) for 6 min to give a final peptide concentration of 20 μM. The hair samples were blocked as described in Example 4 and then incubated in the peptide-conditioner mixtures for 30 min at 37° C. The hair samples were then washed and treated as described in Example 4. After the final wash step after the addition of the Anti-Mouse IgG-HRP conjugate, the hair bundles were transferred to new tubes and the TMB substrate was added. The hair bundles were incubated for 10 min at room temperature, and then a 100 μL sample from each tube was taken and added to a well in a microtiter plate. Then, 100 μL of Stop solution (2 M sulfuric acid solution) was added to each well and the absorbance of each sample was measured at a wavelength of 450 nm.
The binding of the HCP.1(5-FAM) and HCP.6(5-FAM) hair-binding peptides to hair from buffer was determined using the same procedure. In addition, controls were run using the same procedure, without any hair-binding peptide present, in both hair conditioner and buffer.

[4] = Shampoo resistance of hair binding (ELISA after 30% shampoo wash); parameters: species or system human; settings: wash with 30% shampoo (Pantene Pro-V, Sheer Volume)
Experimental: Experiments were also done to determine if the hair conditioner-resistant hair-binding peptides were also shampoo resistant. For these experiments, the hair, after contacting with the hair-binding peptide (HCP.1 or HCP.6), was washed with a solution containing 30% shampoo (Pantene Pro-V, Sheer Volume, Proctor & Gamble, Cincinnati, Ohio) and the binding activity was determined using the ELISA method described above and compared to that obtained with buffer washes.

[5] = Stability of hair-binding activity in a hair conditioner matrix (ELISA over time); parameters: species or system human; settings: 21 days in hair conditioner matrix, room temperature; FIGS. 1 and 2
Experimental: Separate mixtures of the hair-binding peptides HCP.1 and HCP.6 in hair conditioner were prepared as described in Example 5. For purposes of comparison, solutions of the hair-binding peptides in buffer were used. All the solutions were stored at room temperature and the binding activity of the peptides was determined using the ELISA procedure described in Example 5 using samples taken at different periods of time.

HCP.1(5-FAM): HCP.1 with an added C-terminal lysine derivatized with fluorescent tag 5-carboxyfluorescein-aminohexyl amidite (THSTHNHGSPRHTNADAGNPK(5‑FAM))
Hair A450 ± SEM [1]: 0.392 ± 0.065 | Skin A450 ± SEM [2]: 0.090 ± 0.136 | Buffer A450 ± SEM [3]: 1.593 ± 0.060 | 100% Conditioner A450 ± SEM [3]: 1.581 ± 0.046

HCP.6(5-FAM): HCP.6 with an added C-terminal lysine derivatized with fluorescent tag 5-carboxyfluorescein-aminohexyl amidite (STLHKYKSQDPTPHHK(5‑FAM))
Hair A450 ± SEM [1]: 0.581 ± 0.053 | Skin A450 ± SEM [2]: −0.009 ± 0.023 | Buffer A450 ± SEM [3]: 1.420 ± 0.062 | 100% Conditioner A450 ± SEM [3]: 1.217 ± 0.075

STLHKYKSQDPTPHH (Hair conditioner-resistant hair-binding peptide) [HCP.6]
binding to hair (in words) [1]: bind to hair | binding to skin (in words) [2]: not to skin | difference in hair-binding activity from a hair conditioner matrix compared to buffer [3]: no significant difference | binding activity after shampoo wash compared to buffer washes [4]: almost total loss of binding activity | hair-binding activity after storage in the hair conditioner matrix [5]: no significant decrease

Skin 1(5-FAM): skin-binding control peptide Skin 1 with added C-terminal lysine derivatized with 5-FAM (TPFHSPENAPGSK(5‑FAM)) [reference compound]
Hair A450 ± SEM [1]: −0.001 ± 0.041 | Skin A450 ± SEM [2]: 0.328 ± 0.146

Skin 1: control peptide, an unrelated skin-binding peptide (Huang et al., US 2005/0050656) (TPFHSPENAPGS; Skin-binding peptide) [reference compound]
binding to hair (in words) [1]: low hair-binding activity | binding to skin (in words) [2]: high skin-binding activity

THSTHNHGSPRHTNADAGNP (Hair conditioner-resistant hair-binding peptide) [HCP.1]
binding to hair (in words) [1]: bind to hair | binding to skin (in words) [2]: not to skin | difference in hair-binding activity from a hair conditioner matrix compared to buffer [3]: no significant difference | binding activity after shampoo wash compared to buffer washes [4]: almost total loss of binding activity | hair-binding activity after storage in the hair conditioner matrix [5]: no significant decrease

Reference: patent publication US20080292576A1, “METHOD FOR IDENTIFYING HAIR CONDITIONER-RESISTANT HAIR-BINDING PEPTIDES AND HAIR BENEFIT AGENTS THEREFROM” (E.I. du Pont de Nemours and Co., priority 2005, published 2008)
